Source: paper PMC6271529, “Studies on the Anticonvulsant Activity and Influence on GABA-ergic Neurotransmission of 1,2,4-Triazole-3-thione-Based Compounds” (Molecules, 2014)
Like-named read-outs stand apart in the source and are kept apart here.

Assays:
GABAA receptors = assay: Radioligand binding assay, [3H]muscimol, rat cerebral cortex; settings: for Percent of Specific Binding, GABAA: compound 1 × 10^−6 M, [3H]muscimol, rat cerebral cortex; for effect of added compound on affinity of GABA to GABAA receptors: radioligand binding, GABA in combination with compound;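 as to Percent of Specific Binding, GABAA: low percentages indicate weak binding of the compound to the receptor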
Method: Binding experiments were conducted in 96-well microplates in a total volume of 200 μL of appropriate buffer. The reaction mixture included 50 μL solution of test compound, 50 μL of radioligand, and […] the tissue suspension. Rat cerebral cortex was used for each receptor. […] Radioligand binding data were analyzed using iterative curve fitting routines (GraphPAD/Prism, Version 3.0, San Diego, CA, USA). Ki values were calculated from the Cheng and Prusoff equation [36].

[1] = tested on: benzodiazepine (BDZ)-binding sites; assay: Radioligand binding assay, [3H]flunitrazepam, rat cerebral cortex; settings: compound 1 × 10^−6 M;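 also: low percentages indicate weak binding of the compound to the site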
Method: Binding experiments were conducted in 96-well microplates in a total volume of 200 μL of appropriate buffer. The reaction mixture included 50 μL solution of test compound, 50 μL of radioligand, and […] the tissue suspension. Rat cerebral cortex was used for each receptor. The radioactivity was measured in MicroBeta TriLux 1450-liquid scintillation counter (PerkinElmer, Waltham, MA, USA). Radioligand binding data were analyzed using iterative curve fitting routines (GraphPAD/Prism, Version 3.0, San Diego, CA, USA). Ki values were calculated from the Cheng and Prusoff equation [36].

[2] = tested on: threshold for electroconvulsions; design: method as in PMID 22732650; settings: cited from earlier work
[3] = tested on: maximal electroshock-induced seizures; assay: Maximal electroshock-induced seizure (MES) test in mice; type: in vivo, mouse; settings: for p/t, number of animals protected against MES-induced seizures / number tested / responders at 300 mg/kg: 300 mg/kg i.p.; for responders at 300 mg/kg / ED50: Mus musculus, ip; for responders at 300 mg/kg: read-out: percent of animals protected against MES-induced seizures; for PI (TD50/ED50): protective index; for onset of action: significant protection as early as 15 min after parenteral administration, MES
Method in brief: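 Mice given compound i.p. (300 mg/kg screen, then graded doses) 15, 30, 60 or 120 min before ear-clip electroshock (25 mA, 50 Hz, 0.2 s); tonic hind limb extension scored as seizure. ED50 (dose protecting 50% of animals) from Litchfield–Wilcoxon dose-response lines.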

[4] = sub-protective doses of the compound co-administered with valproate; cited from earlier work
[5] = pretreatment time 120 min, mice
[6] = chimney TD50 / MES ED50, pretreatment time 15 min
[7] = chimney TD50 / MES ED50, pretreatment time 30 min
[8] = chimney TD50 / MES ED50, pretreatment time 60 min
[9] = chimney TD50 / MES ED50, pretreatment time 120 min

| Compound | Percent of Specific Binding, GABAA (GABAA receptors) [%] | effect of added compound on affinity of GABA to GABAA receptors (GABAA receptors) | Percent of Specific Binding, BDZ [1] [%] | p/t, number of animals protected against MES-induced seizures / number tested ([3]; pretreatment time 15 min, mice) | p/t, number of animals protected against MES-induced seizures / number tested ([3]; pretreatment time 30 min, mice) | p/t, number of animals protected against MES-induced seizures / number tested ([3]; pretreatment time 60 min, mice) | p/t, number of animals protected against MES-induced seizures / number tested [3, 5] | PI (TD50/ED50) [3, 6] | PI (TD50/ED50) [3, 7] | PI (TD50/ED50) [3, 8] | PI (TD50/ED50) [3, 9] | onset of action ([3]; mice) | further results |
| --- | --- | --- | --- | --- | --- | --- | --- | --- | --- | --- | --- | --- | --- |
| S=c1[nH]nc(-c2cccc(Cl)c2)n1-c1ccc(Br)cc1 [Compound 6a, 4-(4-Bromophenyl)-5-(3-chlorophenyl)-2,4-dihydro-3H-1,2,4-triazole-3-thione] | 17 | did not lead to an increase | 20 | 4/8 | 6/8 | 6/8 | 3/8 | 1.2 | 1.8 | 1.9 | 1.3 | quick onset of action | elevation of the threshold for electroconvulsions [2]: 70%; anticonvulsant activity (in words) ([3]; MES test, mice): slightly weaker than that of valproate; responders at 300 mg/kg ([3]; 0.25 h, pretreatment time 15 min, mice): 50%; responders at 300 mg/kg ([3]; 0.5 h, pretreatment time 30 min, mice): 75%; responders at 300 mg/kg ([3]; 1 h, pretreatment time 60 min, mice): 75%; responders at 300 mg/kg ([3]; 2 h, pretreatment time 120 min, mice): 37.5%; ED50 ([3]; pretreatment time 15 min, mice, read-out: ED50 ± S.E. (MES test)): 298 ± 21.1 mg/kg; ED50 ([3]; pretreatment time 30 min, mice, read-out: ED50 ± S.E. (MES test)): 218 ± 21.7 mg/kg; ED50 ([3]; pretreatment time 60 min, mice, read-out: ED50 ± S.E. (MES test)): 209 ± 27.3 mg/kg; ED50 ([3]; pretreatment time 120 min, mice, read-out: ED50 ± S.E. (MES test)): 336 ± 14 mg/kg |
| Cc1ccc(-n2c(-c3cccc(Cl)c3)n[nH]c2=S)cc1 [Compound 10a, 5-(3-Chlorophenyl)-4-(4-methylphenyl)-2,4-dihydro-3H-1,2,4-triazole-3-thione] | 2 | did not lead to an increase | 9 | 8/8 | 8/8 | 8/8 | 6/8 | 5.9 | 4.5 | 1.8 | 1.4 | quick onset of action | elevation of total brain concentration of valproate [4]: 52%; ED50 ([3]; read-out: ED50 ± S.E. (MES test), i.p., pretreatment time 15 min, mice): 57 ± 9.4 mg/kg; ED50 ([3]; read-out: ED50 ± S.E. (MES test), i.p., pretreatment time 30 min, mice): 74.5 ± 8.1 mg/kg; ED50 ([3]; read-out: ED50 ± S.E. (MES test), i.p., pretreatment time 60 min, mice): 187 ± 18.8 mg/kg; ED50 ([3]; read-out: ED50 ± S.E. (MES test), i.p., pretreatment time 120 min, mice): 281 ± 13.6 mg/kg |
